Experimental data taken from article PMC5743599 (Antiviral research, 2017).

Key:
Tolerability = type: in vivo, huFRG KO mice; conditions: for weight recovery after the treatment phase: primary study, post-treatment
[1] = Single and repeat dose maximum tolerated dose studies; type: in vivo, C57Bl/6 mice or huFRG KO mice
HBV genotype A = test: Pilot/preliminary efficacy study in HBV genotype A-infected huFRG KO mice; type: in vivo, hepatitis B virus
HBV = HBV transgenic mouse model; type: in vivo, hepatitis B virus; conditions: HBV transgenic mice, 100 mg/kg daily IP; data not shown
HBV genotype C = test: Primary efficacy study in HBV genotype C-infected huFRG KO mice; type: in vivo, hepatitis B virus
[2] = entecavir 1 mg/kg/day PO, Days 59-72, genotype C

SMILES	deaths / moribundity in post-dosing phase of primary study (Tolerability; Day 87-88, one animal per group, not with certainty test article-related)	weight recovery after the treatment phase (Tolerability)	Dose-limiting toxicity ([1]; non-infected mice, IP)	maximum tolerated dose (MTD) ([1]; single and repeat IP injections up to seven days, male C57Bl/6 or huFRG KO mice) [mg/kg]	suppression of HBV viremia (average) after one week (HBV genotype A; 50 and 100 mg/kg/day IP, Days 160-173, vs pretreatment Day 159, genotype A) [log]	suppression of HBV viremia at week two (HBV genotype A; 50 and 100 mg/kg/day IP, surviving mice, genotype A)	decrease in HBV titers (trend) in pilot experiment (HBV genotype A; genotype A, #208 treated animals) [log]	reduction of intrahepatic DNA accumulation (HBV)	reduction of serum viremia (HBV)	decrease in HBV titers after one week compared to control mice (HBV genotype C; 100 mg/kg/day IP, genotype C) [log]	decrease in HBV titers after two weeks of dosing compared to control mice (HBV genotype C; 100 mg/kg/day IP, genotype C) [log]	Viral titers rebounded to pretreatment levels by Day (HBV genotype A; after entecavir withdrawal (treatment days 71-84), genotype A) [days]	drop in HBV titers more than the control animals (HBV genotype A; entecavir 1.0 mg/kg PO two weeks, Days 70 to 85, genotype A, plasma) [log]	decrease in HBV titers after one week of treatment (HBV genotype C; [2]) [log]	decrease in HBV titers after two weeks (HBV genotype C; [2]) [log]
CC(=Nc1ccccc1N)c1c(C)cc(=O)n(O)c1O [#208]	found dead	some weight gain occurred	>10% weight loss, hypoactivity, unkempt appearance, feeling cool-to-touch, and distended abdomen	100	1.1	sustained	~1	failed to reduce	failed to reduce	1.6	1.4				
C=C1[C@H](CO)[C@@H](O)C[C@@H]1n1cnc2c(=O)[nH]c(N)nc21 [entecavir, Entecavir, reference compound]		some weight gain occurred										≤ 159	2.8	2.6	3.2
